# In article PMC11177969, “Comprehensive Analyses of the Effects of the Small-Molecule Inhibitor of the UHM Domain in the Splicing Factor U2AF1 in Leukemia Cells” (Research Square, 2024):
# Read-outs that look alike come from different tables or passages of the source.
# Tests used:
# SPF45-UHM = biological target: T1, SPF45-UHM (Homo sapiens, UniProt Q96I25); test: HTRF assay; assay type: binding; conditions: Fig. 2C; SD of 2 independent experiments in parentheses
# T1 sequence (Q96I25 306-385 limits assumed): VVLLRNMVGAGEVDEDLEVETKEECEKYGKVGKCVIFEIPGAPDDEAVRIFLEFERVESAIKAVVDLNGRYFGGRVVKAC
# Source text: (§1) To determine the selectivity of SF1–8 against other homologous UHM domains, we measured the IC50 values of SF1–8 to RBM39-UHM, SPF45-UHM and PUF60-UHM using the HTRF assay.[42] […] In the chemical synthesis (Scheme S1), methylation on the pyrazole group in SF1–8 can occur at the N8 or N9 position (Fig.2C). Although the NMR spectra can be used to infer the methyl group position on the pyrazole, we determined the crystal structure of a SF1–8 precursor to clearly confirm the methyl group is at N9 in SF1–8 (Fig.2C). To further probe the interaction of SF1–8 with U2AF1-UHM, we synthesized SF1–8 analogs and developed the structure activity relationship (SAR) (Fig.2C). […] A longer alkyl group was tolerated at the N8 position but not at the N9 position. […] The crystal structure of a 7c precursor experimentally determined from SCXRD again confirmed the location of the propyl group (Fig. 2C).
# PUF60-UHM = biological target: T2, PUF60-UHM (Homo sapiens, UniProt Q9UHX1); test: HTRF assay; assay type: binding; conditions: Fig. 2C
# T2 sequence (Q9UHX1 462-549 limits assumed): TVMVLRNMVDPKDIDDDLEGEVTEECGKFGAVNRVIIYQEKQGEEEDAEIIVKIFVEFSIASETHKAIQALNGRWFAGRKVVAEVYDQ
# Source text: as §1
# RBM39-UHM = biological target: T3, RBM39-UHM (Homo sapiens, UniProt Q14498); test: HTRF assay; assay type: binding; conditions: Fig. 2C; SD of 2 independent experiments in parentheses
# T3 sequence (Q14498 445-508 limits assumed): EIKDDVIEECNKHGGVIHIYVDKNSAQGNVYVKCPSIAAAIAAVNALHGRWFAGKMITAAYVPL
# Source text: as §1
# U2AF1-UHM [1] = biological target: T4, U2AF1-UHM (Homo sapiens, UniProt Q01081); test: HTRF assay, inhibition of binding between U2AF1-UHM and U2AF2-ULM
# T4 construct: we screened the CCG fragment library from University of Michigan against the U2AF1-UHM domain using the Thermal Shift Assay (TSA)
# T4 sequence (Q01081 65-147 limits assumed): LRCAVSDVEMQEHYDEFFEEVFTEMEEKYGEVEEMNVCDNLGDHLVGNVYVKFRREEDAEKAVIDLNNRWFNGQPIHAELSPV
# Source text: TSA data provided no information of the binding site in U2AF1-UHM. To identify the binding sites of both hits to U2AF1-UHM, we synthesized CCG211578 (named Hit1/SF1–8) and CCG210084 (named Hit2/9 in Fig.2C) and asked if they inhibited the binding between U2AF1-UHM and U2AF2-ULM using our previously developed HTRF assay.[42] […] The IC50 values of SF1–8 and Hit2 correlated with the ΔTm values observed in TSA. We have reported that the conserved Trp binding site in U2AF1-UHM dominated the binding affinity between U2AF2-ULM and U2AF1-UH.[42]
# K562-U2AF1^S34F [2] = test system: K562-U2AF1^S34F; set-up: method as in PMID 33689684; conditions: cited from earlier work
# K562-U2AF1^S34F cells = test: Western blots of select genes; assay type: cell-based; conditions: western blot
# Source text: To understand the underlying mechanisms of the differential effects of SF1–8 on K562-U2AF1^S34F, we performed an RNA-seq experiment on K562-U2AF1^S34F cells treated with SF1–8 and control (Fig.4). […] When the 99 genes were mapped to KEGG pathways, the top six enriched pathways were protein digestion and absorption, extracellular matrix-receptor interaction, focal adhesion, PI3K-Akt signaling pathway, human papillomavirus infection, and AGE-RAGE signaling pathway (Fig.S2). To determine if the protein levels of these genes were affected by their mRNA changes, we performed the western blots of select genes. […] Because of the role U2AF1 in RNA splicing, we asked if analysis of the isoform pattern changes may provide insight to explain the different observations between RNA-seq and western blot data. In the transcript analysis, we identified low FPKM numbers of three BCL2 transcripts (Fig.S3) that explained the relatively low BCL2 protein levels in K562. A significant increase of the BCL-2b transcript was also found. […] Besides BCL2, BCLXL (encoded by BCL2L1) and MCL1 have isoforms (BCL-XS and MCL-1S) that had apoptotic functions. K562 cells expressed only the anti-apoptotic MCL1 transcript and the expression was not affected by SF1–8 (not shown). […] Another frequently studied gene involved in apoptosis regulation is survivin.[48],[49]
# Figure 4. RNA-seq experiment of K562-U2AF1^S34F cells treated with SF1–8 and the western blot of select genes. […] (C) Western blots of c-CBL, ATF3, and BCL-2 in K562-U2AF1^wt, K562-U2AF1^S34F treated with SF1–8. (D) Heatmap of top 99 differentially regulated genes in K562-U2AF1^S34F treated with SF1–8.
# [3] = test system: bone marrow cells of healthy control; test: Colony formation assay; assay type: cell-based, human; conditions: 1 to 20 μM
# Source text: (§2) Previous studies that introduced U2AF1^S34F in lung epithelial (HBEC3kt)[43], leukemia (K562)[38],[44],[45], and iPSC[37] cell lines have validated the function of U2AF1^S34F in these engineered cell lines while mutation of Q157 is less studied. We therefore focused our study on U2AF1^S34F and examined the effects of SF1–8 on a panel of leukemia cell lines including K562, U937, HL60 with isogenic overexpression of U2AF1^wt or U2AF1^S34F, K562 with isogenic overexpression of SRSF2^wt or SRSF2^P95H, and K562 with Crispr/Cas9 edited SF3B1^wt or SF3B1^E700K (denoted as K562-U2AF1^wt, K562-U2AF1^S34F, U937-U2AF1^wt, U937-U2AF1^S34F, HL60-U2AF1^wt, HL60-U2AF1^S34F, K562-SRSF2^wt, K562-SRSF2^P95H, K562-SF3B1^wt, K562-SF3B1^E700K). […] The data obtained from the engineered leukemia cell lines prompted us to query the activity of SF1–8 in primary MDS cells.
# U2AF1-UHM [4] = biological target: T4, U2AF1-UHM; test: Thermal Shift Assay (TSA) fragment library screening; assay type: binding; conditions: confirmatory screening in triplicate, read-out: ΔTm (melting temperature change) of U2AF1-UHM
# Procedure: To develop a different targeting strategy, we assessed potential tractable binding sites in U2AF1 using computational analysis and determined that the UHM domain of U2AF1 was for identifying hits (Fig.S1).[42] To discover hits, we screened the CCG fragment library from University of Michigan against the U2AF1-UHM domain using the Thermal Shift Assay (TSA). An initial single concentration screening at 200 μM led to identify 149 compounds that gave positive shifts of the melting temperature (ΔTm) in U2AF1-UHM. These compounds were subject to a secondary confirmatory screening in triplicate at 200 μM.
# HL-60 = test: Growth inhibition titration (CellTiter-Glo); assay type: cell-based; conditions: Homo sapiens, native cell line carrying U2AF1^wt
# Source text: as §2
# (§3) Figure 3. Growth inhibition activities of SF1–8 in U2AF1, SF3B1, SRSF2 mutant, wild-type leukemia cell lines (A) Dose dependent growth inhibition of U2AF1^S34F, SF3B1^E700K, SRSF2^P95H mutant and isogenic wild-type cell lines by the treatment of SF1–8. (B) Titration of SF1–8 against K562-U2AF1^wt, K562-U2AF1^S34F, MV4–11, HL60 cells using the CellTiter-Glo assay. (C) Toxicity of SF1–8 in human primary MDS cells (U2AF1^S34F) and healthy bone marrow cells.
# MV-4–11 = test: Growth inhibition titration (CellTiter-Glo); assay type: cell-based; conditions: Homo sapiens, MV4-11; native cell line carrying U2AF1^wt
# Source text: as §2, §3
# K562-U2AF1^S34F [5] = test: Growth inhibition / cell viability (CellTiter-Glo); assay type: cell-based
# Source text: as §2, §3
# K562-U2AF1^wt = test: Growth inhibition / cell viability (CellTiter-Glo); assay type: cell-based
# Source text: as §2, §3
# U937-U2AF1^wt = test: Dose dependent growth inhibition; assay type: cell-based; conditions: Fig. 3A
# Source text: as §2, §3
# K562-SRSF2^wt = test: Dose dependent growth inhibition; assay type: cell-based; conditions: Fig. 3A
# Source text: as §2, §3
# HL60-U2AF1^S34F = test: Dose dependent growth inhibition; assay type: cell-based; conditions: Fig. 3A
# Source text: as §2, §3
# K562-SF3B1^E700K = test: Dose dependent growth inhibition; assay type: cell-based; conditions: Fig. 3A
# Source text: as §2, §3
# HL60-U2AF1^wt = test: Dose dependent growth inhibition; assay type: cell-based; conditions: Fig. 3A
# Source text: as §2, §3
# K562-SRSF2^P95H = test: Dose dependent growth inhibition; assay type: cell-based; conditions: Fig. 3A
# Source text: as §2, §3
# U937-U2AF1^S34F = test: Dose dependent growth inhibition; assay type: cell-based; conditions: Fig. 3A
# Source text: as §2, §3
# K562-SF3B1^wt = test: Dose dependent growth inhibition; assay type: cell-based; conditions: Fig. 3A
# Source text: as §2, §3
# [6] = test system: bone marrow cells from an MDS specimen that harbored U2AF1^S34F; test: Toxicity in primary MDS cells; assay type: cell-based; conditions: Homo sapiens, Bone marrow cell, U2AF1^S34F VAF 41%, read-out: viable cells
# Source text: as §2, §3
# healthy control cells = test: Toxicity in healthy control cells; assay type: cell-based, human; conditions: as much as 10 μM
# Source text: as §2, §3
# [7] = Fig. 2C, SD of 2 independent experiments in parentheses, read-out: IC50 U2AF1
# [8] = representative titration curves, Fig. 2B, read-out: IC50 against U2AF1-UHM
smiles,measurement,setting,value
CCCn1nc(O)cc1C1(C)CCNCC1 [8c],IC50,SPF45-UHM,362 µM
same,IC50,PUF60-UHM,621 µM
same,IC50,RBM39-UHM,386 µM
same,IC50,U2AF1-UHM [1]; [7],34.1 µM
CC(C)n1nc(O)cc1C1(C)CCNCC1 [8d],IC50,SPF45-UHM,354 µM
same,IC50,PUF60-UHM,459 µM
same,IC50,RBM39-UHM,395 µM
same,IC50,U2AF1-UHM [1]; [7],71.6 µM
CCC1(c2cc(O)nn2C)CCNCC1 [8e],IC50,SPF45-UHM,179 µM
same,IC50,PUF60-UHM,592 µM
same,IC50,RBM39-UHM,335 µM
same,IC50,U2AF1-UHM [1]; [7],46.5 µM
CC1(C)C2CCC(CN=C(N)CSS(=O)(=O)O)C1C2 (centres unmarked) [NSC194308],fold lower IC50 value in K562-U2AF^S34F than in K562-U2AF1^wt,K562-U2AF1^S34F [2],2–3 fold
same,selectivity between K562-U2AF1^S34F and K562-U2AF1^wt,K562-U2AF1^S34F [2],2 fold
Cn1nc(C2(C)CCNCC2)cc1O [SF1–8],ATF-3 protein level,K562-U2AF1^S34F cells,increase of ATF-3 was confirmed
same,BCL2 protein level,K562-U2AF1^S34F cells,decreased BCL2
same,c-CBL protein level,K562-U2AF1^S34F cells,no change of c-CBL
same,toxicity in colony formation assay,[3],no significant toxicity
same,ΔTm at 200 µM,U2AF1-UHM [4],2.02 °C
same,IC50,HL-60,> 100 µM
same,IC50,MV-4–11,> 100 µM
same,IC50,SPF45-UHM,748 µM
same,IC50,PUF60-UHM,523 µM
same,IC50,RBM39-UHM,221 µM
same,effect on cell viability,K562-U2AF1^S34F [5]; Fig. 3A,selectively decreased the viability
same,IC50,"K562-U2AF1^S34F [5]; dose titration, CellTiter-Glo",1.98 µM
same,effect on cell viability,K562-U2AF1^wt; Fig. 3A,but not their isogenic wild-type cells
same,activity in dose titration,"K562-U2AF1^wt; dose titration, CellTiter-Glo",no activity
same,effect on cell viability,U937-U2AF1^wt,no activity
same,effect on cell viability,K562-SRSF2^wt,no activity
same,effect on cell viability,HL60-U2AF1^S34F,reduced cell viability
same,effect on cell viability,K562-SF3B1^E700K,selectively decreased the viability
same,effect on cell viability,HL60-U2AF1^wt,reduced cell viability
same,effect on cell viability,K562-SRSF2^P95H,no activity
same,effect on cell viability,U937-U2AF1^S34F,no activity
same,effect on cell viability,K562-SF3B1^wt,but not their isogenic wild-type cells
same,viability at 10 µM,[6],20%
same,IC50,U2AF1-UHM [1]; [7],59.33 ± 0.02 µM
same,selectivity against three other UHM domains,"U2AF1-UHM [1]; U2AF1-UHM vs RBM39-UHM, SPF45-UHM, PUF60-UHM",4–12 fold
same,IC50,U2AF1-UHM [1]; [8],59.3 µM
same,effect on viable cells,healthy control cells,did not significantly decrease 20% of viable cells
CC1(c2cc(O)[nH]n2)CCNCC1 [compound 9],ΔTm at 200 µM,U2AF1-UHM [4],1.5 °C
same,IC50,SPF45-UHM,> 1000 µM
same,IC50,PUF60-UHM,992 µM
same,IC50,RBM39-UHM,686 µM
same,IC50,U2AF1-UHM [1]; [7],343 ± 62.4 µM
same,IC50,U2AF1-UHM [1]; [8],328 µM
